What all share (assay type): biochemical
The target of one test is T1, EGFR (WT) (Homo sapiens, UniProt P00533).
T1 construct: the cytoplasmic domain of human EGFR (WT); FLAG (N); made in house; host or cells: baculovirus expression system, insect Sf9 cells
Briefly: EGFR (WT) kinase inhibitory activity (in vitro). The conditions noted are these: for IC50: cytoplasmic domain of human EGFR (WT), ATP 4.7 μM, substrate peptide 500 nM; for inhibitory activities for EGFR (WT) compared with the mutant EGFR proteins, in words: summary of Table 1. The procedure: (§1) The measurement method was as follows. The compounds I-1, I-2, I-3, I-4, I-5, I-6, I-7, I-8, and I-9 were each dissolved in dimethylsulfoxide (DMSO), and then each serially diluted with DMSO. Next, the EGFR (T790M/L858R) protein, substrate peptide (final concentration: 250 nM), magnesium chloride (final concentration: 10 mM), manganese chloride (final concentration: 10 mM), ATP (final concentration: 1 μM), and the diluted DMSO solution of each compound (final concentration of DMSO: 2.5%) were added to a kinase reaction buffer (Carna Biosciences, Inc.), and the mixture was incubated at 25° C. for 120 minutes for kinase reaction. EDTA was added thereto to a final concentration of 24 mM to thereby terminate the reaction. Then, a detection solution containing europium (Eu)-labeled anti-phosphorylated tyrosine antibody PT66 (PerkinElmer) and SureLight APC-SA (PerkinElmer) was added, and the resulting mixture was allowed to stand at room temperature for 2 hours or more. Finally, the intensity of fluorescence under the excitation light with a wavelength of 337 nm was measured by a PHERAstar FS (BMG LABTECH) at two wavelengths of 620 nm and 665 nm. The level of phosphorylation of each test sample was calculated from the fluorescence intensity ratio of the two wavelengths in DMSO control and in the test sample, and the compound concentration at which phosphorylation was inhibited by 50% was determined as the IC50 value (nM) of each compound.
The inhibitory activities of the compounds I-1, I-2, I-3, I-4, I-5, I-6, I-7, I-8, and I-9 on EGFR (WT) kinase were measured.
The materials were as follows. As the EGFR (WT), the cytoplasmic domain of human EGFR (WT) in which a FLAG tag was fused to the N-terminus was expressed in a baculovirus expression system using insect Sf9 cells, and purified with anti-FLAG antibody agarose (Sigma-Aldrich). The final concentration of the substrate peptide was 500 nM, and the final concentration of ATP was 4.7 μM. As for other conditions, the same materials and methods as those used in the measurement of EGFR (T790M/L858R) kinase inhibitory activity were used to determine the IC50 value (nM) of each compound.

The target of another test is T2, EGFR (d746-750) (Homo sapiens, UniProt P00533, DEL746-750).
T2 construct: purchased Carna Biosciences, Inc
Briefly: EGFR (d746-750) kinase inhibitory activity (in vitro). As to conditions: recombinant human protein, ATP 5 μM, 90 minutes. The procedure:
as §1
4) Measurement of EGFR (d746-750) Kinase Inhibitory Activity
The inhibitory activities of the compounds I-1, I-2, I-3, I-4, I-5, I-6, I-7, I-8, and I-9 for EGFR (d746-750) kinase activity were measured.
The materials were as follows. The EGFR (d746-750) was a purified recombinant human EGFR (d746-750) protein purchased from Carna Biosciences, Inc. The final concentration of ATP was 5 μM. The incubation time for the kinase reaction was 90 minutes. As for other conditions, the same materials and methods as those used in the measurement of EGFR (T790M/L858R) kinase inhibitory activity were used to determine the IC50 value (nM) of each compound.

For another test, the target named is T3, EGFR (L858R) (Homo sapiens, UniProt P00533, L858R).
T3 construct: purchased Carna Biosciences, Inc
Briefly: EGFR (L858R) kinase inhibitory activity (in vitro). The conditions noted are these: recombinant human protein, ATP 4 μM. As to the method:
as §1
3) Measurement of EGFR (L858R) Kinase Inhibitory Activity
The inhibitory activities of the compounds I-1, I-2, I-3, I-4, I-5, I-6, I-7, I-8, and I-9 for EGFR (L858R) kinase were measured.
The materials were as follows. The EGFR (L858R) was a purified recombinant human EGFR (L858R) protein purchased from Carna Biosciences, Inc. The final concentration of ATP was 4 μM. As for other conditions, the same materials and methods as those used in the measurement of EGFR (T790M/L858R) kinase inhibitory activity were used to determine the IC50 value (nM) of each compound.

Another test has as its target T4, EGFR (d746-750/T790M) (Homo sapiens, UniProt P00533, DEL746-750/T790M).
T4 construct: purchased Carna Biosciences, Inc
Briefly: EGFR (d746-750/T790M) kinase inhibitory activity (in vitro). As to conditions: recombinant human protein, ATP 1.5 μM. As to the method:
as §1
2) Measurement of EGFR (d746-750/T790M) Kinase Inhibitory Activity
The inhibitory activities of the compounds I-1, I-2, I-3, I-4, I-5, I-6, I-7, I-8, and I-9 for EGFR (d746-750/T790M) kinase were measured.
The materials were as follows. The EGFR (d746-750/T790M) was a purified recombinant human EGFR (d746-750/T790M) protein purchased from Carna Biosciences, Inc. The final concentration of ATP was 1.5 μM. As for other conditions, the same materials and methods as those used in the measurement of EGFR (T790M/L858R) kinase inhibitory activity were used to determine the IC50 value (nM) of each compound.

A further test deals with T5, EGFR (T790M/L858R) (Homo sapiens, UniProt P00533, L858R/T790M).
T5 construct: purchased Carna Biosciences, Inc
Briefly: EGFR (T790M/L858R) kinase inhibitory activity (in vitro). As to conditions: for IC50: recombinant human protein, ATP 1 μM, 120 minutes; for inhibitory activities for EGFR (L858R), EGFR (d746-750), EGFR (T790M/L858R) and EGFR (d746-750/T790M), in words: summary of Table 1, all four mutant kinases. The procedure:
1) Measurement of EGFR (T790M/L858R) Kinase Inhibitory Activity
The inhibitory activities of the compounds I-1, I-2, I-3, I-4, I-5, I-6, I-7, I-8, and I-9 for EGFR (T790M/L858R) kinase were measured.
The materials were as follows. The substrate peptide was a biotinylated peptide (biotin-EEPLYWSFPAKKK) synthesized by reference to the amino acid sequence of FL-Peptide 22 (a reagent for LabChip® Series; Caliper Life Sciences, Inc.). The EGFR (T790M/L858R) was a purified recombinant human EGFR (T790M/L858R) protein purchased from Carna Biosciences, Inc.
as §1

T4 sequence (P00533 with tags, fused parts or gaps DEL746-750/T790M limits assumed): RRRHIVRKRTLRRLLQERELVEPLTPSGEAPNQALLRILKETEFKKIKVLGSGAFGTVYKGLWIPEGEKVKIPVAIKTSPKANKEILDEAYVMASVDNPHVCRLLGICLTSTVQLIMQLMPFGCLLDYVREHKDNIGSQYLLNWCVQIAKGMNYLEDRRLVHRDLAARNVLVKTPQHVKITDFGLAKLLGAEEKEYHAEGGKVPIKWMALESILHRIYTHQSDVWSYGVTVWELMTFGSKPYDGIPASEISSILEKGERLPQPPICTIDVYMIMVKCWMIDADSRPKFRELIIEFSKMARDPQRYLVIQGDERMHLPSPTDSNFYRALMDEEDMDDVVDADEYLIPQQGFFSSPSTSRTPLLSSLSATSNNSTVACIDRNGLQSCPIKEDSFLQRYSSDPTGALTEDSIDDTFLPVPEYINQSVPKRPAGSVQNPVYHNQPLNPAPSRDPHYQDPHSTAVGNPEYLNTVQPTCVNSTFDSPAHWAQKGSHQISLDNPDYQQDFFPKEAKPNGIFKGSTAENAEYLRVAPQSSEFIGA
T5 sequence (P00533 25-1210 T790M/L858R): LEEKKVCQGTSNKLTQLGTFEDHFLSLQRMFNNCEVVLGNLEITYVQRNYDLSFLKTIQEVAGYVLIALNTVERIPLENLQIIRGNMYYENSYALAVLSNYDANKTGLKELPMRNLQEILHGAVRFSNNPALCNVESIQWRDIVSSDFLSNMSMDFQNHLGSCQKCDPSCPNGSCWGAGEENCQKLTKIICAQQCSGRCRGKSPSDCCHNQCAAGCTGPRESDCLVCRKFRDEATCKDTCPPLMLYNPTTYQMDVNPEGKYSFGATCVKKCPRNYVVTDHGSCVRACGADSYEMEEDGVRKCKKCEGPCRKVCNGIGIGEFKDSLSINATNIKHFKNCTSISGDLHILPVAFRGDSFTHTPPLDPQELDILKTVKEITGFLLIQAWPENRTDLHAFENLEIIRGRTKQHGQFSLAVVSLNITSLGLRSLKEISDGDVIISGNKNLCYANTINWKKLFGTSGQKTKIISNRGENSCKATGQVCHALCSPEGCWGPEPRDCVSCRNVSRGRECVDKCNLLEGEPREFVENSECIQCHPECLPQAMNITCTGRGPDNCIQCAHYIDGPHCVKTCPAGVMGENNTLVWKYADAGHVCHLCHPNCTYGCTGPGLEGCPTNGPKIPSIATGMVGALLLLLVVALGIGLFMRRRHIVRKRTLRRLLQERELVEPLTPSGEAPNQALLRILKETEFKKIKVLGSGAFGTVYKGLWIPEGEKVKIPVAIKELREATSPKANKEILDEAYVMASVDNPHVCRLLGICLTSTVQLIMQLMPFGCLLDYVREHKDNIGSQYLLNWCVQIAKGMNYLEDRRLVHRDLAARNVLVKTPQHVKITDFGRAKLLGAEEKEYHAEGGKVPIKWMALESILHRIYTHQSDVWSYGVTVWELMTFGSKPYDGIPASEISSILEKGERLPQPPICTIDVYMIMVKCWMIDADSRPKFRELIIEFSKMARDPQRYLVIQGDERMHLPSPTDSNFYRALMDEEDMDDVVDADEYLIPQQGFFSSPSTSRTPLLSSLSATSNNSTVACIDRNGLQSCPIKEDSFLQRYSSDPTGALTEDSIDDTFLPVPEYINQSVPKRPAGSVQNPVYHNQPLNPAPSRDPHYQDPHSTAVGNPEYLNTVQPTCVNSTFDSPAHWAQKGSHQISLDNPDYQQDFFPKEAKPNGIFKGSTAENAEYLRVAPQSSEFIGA
T1 sequence (P00533 669-1210 limits assumed): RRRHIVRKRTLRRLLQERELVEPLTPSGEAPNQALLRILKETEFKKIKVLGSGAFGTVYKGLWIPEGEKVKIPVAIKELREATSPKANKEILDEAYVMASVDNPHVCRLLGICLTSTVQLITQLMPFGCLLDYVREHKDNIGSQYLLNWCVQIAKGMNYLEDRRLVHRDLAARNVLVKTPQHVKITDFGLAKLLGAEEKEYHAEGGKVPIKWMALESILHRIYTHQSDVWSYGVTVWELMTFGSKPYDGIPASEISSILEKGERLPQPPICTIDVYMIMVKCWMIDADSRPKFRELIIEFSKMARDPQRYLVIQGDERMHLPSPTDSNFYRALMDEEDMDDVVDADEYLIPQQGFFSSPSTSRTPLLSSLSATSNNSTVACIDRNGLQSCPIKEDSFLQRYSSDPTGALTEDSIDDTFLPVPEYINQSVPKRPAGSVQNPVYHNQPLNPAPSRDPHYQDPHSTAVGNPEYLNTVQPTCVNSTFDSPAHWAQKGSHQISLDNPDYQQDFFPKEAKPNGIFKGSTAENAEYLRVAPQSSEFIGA
T3 sequence (P00533 25-1210 L858R): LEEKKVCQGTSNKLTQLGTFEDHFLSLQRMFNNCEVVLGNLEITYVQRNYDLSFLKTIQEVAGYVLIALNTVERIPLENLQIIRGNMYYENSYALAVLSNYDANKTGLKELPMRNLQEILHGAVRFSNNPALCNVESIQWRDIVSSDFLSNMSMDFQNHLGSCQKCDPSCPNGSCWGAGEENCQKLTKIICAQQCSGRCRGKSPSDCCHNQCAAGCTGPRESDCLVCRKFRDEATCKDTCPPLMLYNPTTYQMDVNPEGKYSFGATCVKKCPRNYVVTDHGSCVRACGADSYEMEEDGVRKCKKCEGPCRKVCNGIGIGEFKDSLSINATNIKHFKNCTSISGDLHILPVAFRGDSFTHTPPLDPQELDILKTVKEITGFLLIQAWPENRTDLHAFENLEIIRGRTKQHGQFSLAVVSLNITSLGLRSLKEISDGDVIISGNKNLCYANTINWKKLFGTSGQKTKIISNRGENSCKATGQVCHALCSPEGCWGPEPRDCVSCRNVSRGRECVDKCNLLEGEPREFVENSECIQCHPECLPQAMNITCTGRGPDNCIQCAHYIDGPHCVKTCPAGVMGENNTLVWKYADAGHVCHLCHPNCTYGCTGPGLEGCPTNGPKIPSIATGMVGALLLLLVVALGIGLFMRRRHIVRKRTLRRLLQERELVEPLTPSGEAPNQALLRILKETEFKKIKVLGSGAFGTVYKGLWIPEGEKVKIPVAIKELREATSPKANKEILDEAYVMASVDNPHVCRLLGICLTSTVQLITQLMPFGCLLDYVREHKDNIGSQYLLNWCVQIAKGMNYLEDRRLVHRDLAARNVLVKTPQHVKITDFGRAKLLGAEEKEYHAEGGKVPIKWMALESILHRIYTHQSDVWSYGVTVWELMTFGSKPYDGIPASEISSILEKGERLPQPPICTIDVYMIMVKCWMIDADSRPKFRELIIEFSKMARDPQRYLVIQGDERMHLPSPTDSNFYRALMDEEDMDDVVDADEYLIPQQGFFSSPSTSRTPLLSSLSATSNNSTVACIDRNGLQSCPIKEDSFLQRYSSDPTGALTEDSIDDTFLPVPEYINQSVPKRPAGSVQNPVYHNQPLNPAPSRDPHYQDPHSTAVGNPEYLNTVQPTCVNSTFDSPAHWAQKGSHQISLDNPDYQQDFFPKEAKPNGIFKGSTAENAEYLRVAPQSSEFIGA
T2 sequence (P00533 with tags, fused parts or gaps DEL746-750 limits assumed): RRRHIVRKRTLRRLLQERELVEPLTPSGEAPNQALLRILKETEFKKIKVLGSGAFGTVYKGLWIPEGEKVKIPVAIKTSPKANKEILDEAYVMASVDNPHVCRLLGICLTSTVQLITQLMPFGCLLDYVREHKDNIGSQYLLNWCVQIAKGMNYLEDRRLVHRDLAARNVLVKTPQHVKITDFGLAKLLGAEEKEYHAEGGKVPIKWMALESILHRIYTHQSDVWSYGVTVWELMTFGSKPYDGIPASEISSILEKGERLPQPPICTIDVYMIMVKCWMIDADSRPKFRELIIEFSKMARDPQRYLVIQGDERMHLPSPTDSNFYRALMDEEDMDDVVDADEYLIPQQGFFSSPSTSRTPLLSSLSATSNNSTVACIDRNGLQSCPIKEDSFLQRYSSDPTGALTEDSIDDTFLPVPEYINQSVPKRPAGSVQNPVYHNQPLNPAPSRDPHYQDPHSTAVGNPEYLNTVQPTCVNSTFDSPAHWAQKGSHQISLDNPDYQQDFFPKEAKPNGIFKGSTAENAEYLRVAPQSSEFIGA

For `C=CC(=O)N[C@@H]1CCc2c(-c3cnc4ccccc4c3)c3c(N)ncnc3n2C1` (single isomer, unassigned) [Compound I-1], the IC50 amounted to 170 nM on EGFR (WT); 13 nM on EGFR (d746-750); 14 nM on EGFR (L858R); 2.8 nM on EGFR (d746-750/T790M); 5.3 nM at EGFR (T790M/L858R). Besides, the “inhibitory activities for EGFR (WT) compared with the mutant EGFR proteins, in words” value against EGFR (WT) is on record as “lower than those for the above mutant EGFR proteins”. At EGFR (T790M/L858R), the “inhibitory activities for EGFR (L858R), EGFR (d746-750), EGFR (T790M/L858R) and EGFR (d746-750/T790M), in words” value (shortened to “inhibitory activities for EGFR (L858R)”) is given as “potent inhibitory activities”.

As for `Nc1ncnc2c1c(-c1cccc(NC(=O)c3ccccc3)c1)c1n2CCCC1` [Comp. Ex. 1, N-(3-(4-amino-6,7,8,9-tetrahydropyrimido[5,4-b]indolizin-5-yl)phenyl)benzamide, reference compound], the IC50 against EGFR (WT) is greater than 5000 nM; on EGFR (d746-750) it was 1500 nM; on EGFR (L858R) it was greater than 5000 nM; on EGFR (d746-750/T790M), greater than 5000 nM; at EGFR (T790M/L858R), greater than 5000 nM. Also, the “inhibitory activity for these EGFR kinases, in words” value against EGFR (T790M/L858R) (all EGFR kinases of Test Example 1) is on record as “almost no inhibitory activity”.

As for `CN(C)C/C=C/C(=O)NC1CCc2c(-c3cnc4ccccc4c3)c3c(N)ncnc3n2C1` (stereo not shown) [Compound I-4, (E)-N-(4-amino-5-(quinolin-3-yl)-6,7,8,9-tetrahydropyrimido[5,4-b]indolizin-8-yl)-4-(dimethylamino)-2-butenamide], the 50% inhibitory concentration (IC50) amounted to 120 nM against EGFR (WT); 10 nM on EGFR (d746-750); 12 nM on EGFR (L858R); 4.1 nM on EGFR (d746-750/T790M); 6.7 nM on EGFR (T790M/L858R). Further, on EGFR (WT), the “inhibitory activities for EGFR (WT) compared with the mutant EGFR proteins, in words” value is “lower than those for the above mutant EGFR proteins”. On EGFR (T790M/L858R), the “inhibitory activities for EGFR (L858R)” value is recorded as “potent inhibitory activities”.

`Nc1ncnc2c1c(-c1cnc3ccccc3c1)c1n2C[C@@H](NC(=O)/C=C/Cl)CC1` [Compound I-5, (S,E)-N-(4-amino-5-(quinolin-3-yl)-6,7,8,9-tetrahydropyrimido[5,4-b]indolizin-8-yl)-3-chloroacrylamide]: the IC50 at EGFR (WT) came to 5.9 nM; on EGFR (d746-750), 0.5 nM; on EGFR (L858R), 0.7 nM; on EGFR (d746-750/T790M) it was 0.3 nM; at EGFR (T790M/L858R), 0.4 nM. The “inhibitory activities for EGFR (WT) compared with the mutant EGFR proteins, in words” value on EGFR (WT) is reported as “lower than those for the above mutant EGFR proteins”. The “inhibitory activities for EGFR (L858R)” value on EGFR (T790M/L858R) is “potent inhibitory activities”.

In the case of `Nc1ncnc2c1c(-c1cnc3ccccc3c1)c1n2C[C@@H](NC(=O)/C=C\Cl)CC1` [Compound I-6, (S,Z)—N-(4-amino-5-(quinolin-3-yl)-6,7,8,9-tetrahydropyrimido[5,4-b]indolizin-8-yl)-3-chloroacrylamide], the IC50 amounted to 41 nM at EGFR (WT); 3.6 nM on EGFR (d746-750); 2.9 nM on EGFR (L858R); 1.2 nM on EGFR (d746-750/T790M); 1.2 nM on EGFR (T790M/L858R). In addition, the “inhibitory activities for EGFR (WT) compared with the mutant EGFR proteins, in words” value against EGFR (WT) is “lower than those for the above mutant EGFR proteins”. Also, the “inhibitory activities for EGFR (L858R)” value against EGFR (T790M/L858R) was “potent inhibitory activities”.

With `C=CC(=O)N[C@H]1CCc2c(-c3cnc4ccccc4c3)c3c(N)ncnc3n2CC1` [Compound I-7, (S)-N-(4-amino-5-(quinolin-3-yl)-7,8,9,10-tetrahydro-6H-pyrimido[5′,4′:4,5]pyrrolo[1,2-a]azepin-8-yl)acrylamide], the IC50 on EGFR (WT) worked out at 33 nM; on EGFR (d746-750), 1.8 nM; on EGFR (L858R) it was 2.9 nM; on EGFR (d746-750/T790M), 0.5 nM; at EGFR (T790M/L858R), 1.4 nM. For the same compound, the “inhibitory activities for EGFR (WT) compared with the mutant EGFR proteins, in words” value at EGFR (WT) is on record as “lower than those for the above mutant EGFR proteins”. In addition, the “inhibitory activities for EGFR (L858R)” value against EGFR (T790M/L858R) is “potent inhibitory activities”.

As to `C=CC(=O)N[C@H]1CCCc2c(-c3cnc4ccccc4c3)c3c(N)ncnc3n2C1` [Compound I-8, (S)-N-(4-amino-5-(quinolin-3-yl)-7,8,9,10-tetrahydro-6H-pyrimido[5′,4′:4,5]pyrrolo[1,2-a]azepin-9-yl)acrylamide], the IC50 came to 490 nM on EGFR (WT); 20 nM at EGFR (d746-750); 41 nM on EGFR (L858R); 13 nM at EGFR (d746-750/T790M); 18 nM on EGFR (T790M/L858R). Moreover, the “inhibitory activities for EGFR (WT) compared with the mutant EGFR proteins, in words” value on EGFR (WT) is given as “lower than those for the above mutant EGFR proteins”. The “inhibitory activities for EGFR (L858R)” value on EGFR (T790M/L858R) is reported as “potent inhibitory activities”.

Consider `C=CC(=O)N[C@@H]1CCCc2c(-c3cnc4ccccc4c3)c3c(N)ncnc3n2C1` [Compound I-9, (R)-N-(4-amino-5-(quinolin-3-yl)-7,8,9,10-tetrahydro-6H-pyrimido[5′,4′:4,5]pyrrolo[1,2-a]azepin-9-yl)acrylamide], for which the half-maximal inhibitory concentration (IC50) is 3600 nM against EGFR (WT); 270 nM on EGFR (d746-750); 350 nM on EGFR (L858R); 82 nM on EGFR (d746-750/T790M); 160 nM on EGFR (T790M/L858R). The “inhibitory activities for EGFR (WT) compared with the mutant EGFR proteins, in words” value at EGFR (WT) is recorded as “lower than those for the above mutant EGFR proteins”. The “inhibitory activities for EGFR (L858R)” value on EGFR (T790M/L858R) is reported as “potent inhibitory activities”.

A word on the IC50: it is the concentration that gives 50% inhibition.

Source of the values: US8889666B2, “Quinolyl pyrrolo pyrimidyl condensed-ring compound and salt thereof” (Taiho Pharmaceutical Co., Ltd., priority 2012, dated 2014).
